These results are taken from patent publication US11406631B2, “Hydrazone derivatives for preventing or treating EBV-related cancers” (Universite de Bretagne Occidentale, priority 2018, dated 2022).

Experiment [1] has as its system GAr-based inhibition of translation. In words: Yeast assay (assays described in Lista et al.). The format is cell-based, Saccharomyces cerevisiae. An excerpt: A yeast-based (Saccharomyces cerevisiae) assay that recapitulates all the aspects of the GAr-based inhibition of translation, including the GAr-length dependency, has been developed, that allowed understanding the mechanisms of GAr-mediated mRNA translation—suppression in cis, as well as the cellular factors involved (Lista et al. Biotechnol J 2015, 10, 1670-1681). This assay was successfully used to identify small molecular weight compounds that can stimulate EBNA1 expression both in yeast and mammalian cells and that relieve GAr-based limitation of antigen presentation (Voisset et al. Dis Model Mech 2014, 7, 435-444).
Compounds 1a, 2a, 4a, 5a, 7a, 10a and 11a were also tested in the various assay described in Lista et al. (Nat Commun 2017, 8, 16043).

The next experiment deals with quadruplex RNA F-EBNA1-T. The experiment is described as follows: FRET-melting assay. In kind it is binding, Epstein-Barr virus. The source says: The FRET-melting assay is based on thermal denaturation of G4-ARN monitored by fluorescence due to the phenomenon of Förster Resonance Energy Transfer (FRET). This method uses quadruplex-forming RNA sequence dual-labeled with two different fluorophores: a donor (fluorescein, or FAM) and an acceptor (tetramethylrhodamine, or TAMRA). When RNA is folded into G-quadruplex (G4) structure, fluorescence of the donor fluorophore is weak due to strong energy transfer (FRET) to the neighboring acceptor fluorophore. Upon thermal denaturation, the quadruplex unfolds and the fluorophores are separated, leading to decrease of the FRET effect and increase of the fluorescence of the donor (see FIG. 2). By following the fluorescence of the donor as a function of temperature, a melting curve of the G-quadruplex RNA can be obtained, which allows determining the temperature of denaturation at which 50% of the quadruples is unfolded (T1, FIG. 3).
The FRET-melting assay allows assessing the affinity of small molecules (ligands) for the G4-RNA. The addition of a G4-ligand stabilizes the G-quadruplex structure and increases the denaturation temperature. The temperature of denaturation in the presence of ligands (T2) can be compared with that obtained in the absence of ligands (T1). The value of ΔTm (ΔTm=T2−T1) represents a measure of the affinity of the compounds of the invention (ligand). Generally, values of ΔTm>20° C. correspond to ligands of high affinity.
The dual-labeled oligoribonucleotide EBNA1 [5′-FAM-r(GGGGCAGGAGCAGGAGGA)-TAMRA-3′] (SEQ ID no 2) purified by reversed-phase HPLC was purchased from Eurogentec. The donor fluorophore was 6-carboxyfluorescein (FAM) and the acceptor fluorophore was 6-carboxytetramethylrhodamine (TAMRA).
Stock solutions of the ligands (2 mM in DMSO) were used for FRET-melting assay, unless otherwise stated, and were stored at −20° C. FRET-melting measurements are performed on 7900HT Fast Real-Time PCR System (Applied Biosystems) with Microamp Fast optical 96-well reaction plate (Applied Biosystems).
Preparation of Oligonucleotides For FRET-melting assay, oligoribonucleotide F-EBNA1-T was dissolved in K^+10 buffer (10 mM lithium cacodylate buffer, pH 7.3, supplemented with 10 mM KCl and 90 mM LiCl).
Prior to use, all oligonucleotides were pre-treated by heating at 95° C. for 5 min, then rapidly cooled to 4° C. to favor the intramolecular folding by kinetic trapping. Duplex-DNA ds26 (5′CAA-TCG-GAT-CGA-ATT-CGA-TCC-GAT-TG-3′) (SEQ ID no 3) was prepared by heating this self-complementary strand at 90° C. for 5 min in K^+10 buffer followed by a slow cooling over 6 h.
FRET-melting assay is performed in 96-well plates on real time PCR apparatus 7900HT Fast Real-Time PCR System using the heating ramp as follow: 5 min at 25° C., then increase of 0.5° C. every minute until 95° C. Each experimental condition was tested in duplicated in a volume of 25 μL for each sample. The 96-well plates (Applied Biosystems) were prepared by aliquoting the annealed RNA (24 μL of 0.21 μM solution in K^+10 buffer) into each well, followed by 1 μL of ligand solution (25 μM in K^+10 buffer). For competition experiments, duplex competitors were added to 200 nM quadruplex sequences at final concentrations of 3.0 μM (15 eq) and 10.0 μM (50 eq), with a total reaction volume of 25 μL, with the labeled oligoribonucleotide (0.2 μM) and the ligand (1.0 μM). Measurements were made with excitation at 492 nm and detection at 516 nm. The change in the melting temperature in the presence of 1.0 μM putative ligand, ΔTm (1.0 μM), was calculated from at least two experiments by subtraction of the blank from the averaged melting temperature of each compound (1.0 μM).
The results are shown in FIG. 4 and in Table 2 below (higher ΔTm values indicate higher affinity of the compounds to G4-RNA structure of EBNA1).

The target of the next experiment is G4-RNA EBNA1. In words: HT-G4-FID assay: Thiazole Orange displacement from G4-RNA. The format is binding, Epstein-Barr virus. The method, then:
This assay is based on the displacement of a fluorescent indicator (Thiazole Orange, hereinafter TO) from a G4-RNA structure (RNA G-quadruplex of EBNA1) by a putative ligand such as the compounds of the invention (see FIG. 1). This displacement is quantified as % TO displacement. The percentage of TO displacement is calculated from the fluorescence intensity (F) in the presence of a putative ligand, using:
[formula] where F0 is fluorescence intensity of the probe (TO) bound to RNA without added ligand. The percentage of displacement is then plotted as a function of the concentration of added ligand. The RNA affinity of putative ligands is evaluated using the concentration of a ligand required to decrease the fluorescence of the probe by 50% (noted DC50), which is determined graphically from non-linear fitting of the displacement curve. […] 2. Materials and Reagents
Thiazole Orange (TO) and cacodylic acid were purchased from Aldrich and used without further purification. The oligoribonucleotide EBNA1 [5′-r(GGGGCAGGAGCAGGAGGA)-3′] (SEQ ID no 1) purified by reversed-phase HPLC was purchased from Eurogentec.
Stock solutions of the ligands (2 mM in DMSO (dimethylsulfoxyde)) were used for G4-FID assay, unless otherwise stated, and were stored at −20° C. Stock solutions of TO (2 mM in DMSO) were used for G4-FID assay. Fluorescent probe powders and solutions were stored and used, protected from light and used as aliquots to avoid freeze-thaw cycles. HT-G4-FID measurements were performed on a FLUOstar Omega microplate reader (BMG Labtech) with 96-well Non-Binding Surface black with black bottom polystyrene microplates (Corning ref 3650).
For HT-G4-FID assay, the oligonucleotide was dissolved in K^+−100-buffer (10 mM lithium cacodylate, pH 7.3, 100 mM KCl, 1 mM EDTA, 1% DMSO). Oligonucleotide concentrations were determined on the basis of their absorbance at 260 nm. Prior to use, the oligonucleotide was pre-treated by heating at 95° C. for 5 min followed by a slow cooling to 25° C.
Each G4-FID assay is performed in a 96-well microplates. […] The microplate is filled with (a) K^+−100 solution (qs for 200 μL) (b) 10 μL of a solution of pre-folded oligonucleotides (5 μM) and TO (10 μM-2 eq) and (c) an extemporaneously prepared 5 μM ligand solution in K^+−100 buffer (0 to 100 μL along the line of the microplate, i.e., from column […]: 0, 0.125, 0.25, 0.375, 0.5, 0.625, 0.75, 1.0, 1.25, 1.5, 2.0 and 2.5 μM) (see Largy et al., Anal Bioanal Chem 2011, 400, 34193427). After 5 min of orbital shaking at 500 rpm, fluorescence intensity is measured using the following experimental parameters: positioning delay: 0.5 s, 20 flashes per well, emission/excitation filters (nm): 485/520, gain adjusted at 80% of the fluorescence from the most fluorescent well (i.e., a well from column A).
Results are shown in Table 1 below (lower DC50 values indicate higher affinity of compounds to the G4-RNA structure of EBNA1).

In experiment [2] the test system is interaction between NCL and the G4s of EBNA1 mRNA. The settings on record: earlier study, Lista et al. Nat Commun 2017; cited from earlier work.

Consider `C[n+]1ccc(C=NNC(=O)c2ccc3ccc(C(=O)NN=Cc4cc[n+](C)cc4)nc3n2)cc1.[I-].[I-]` [Compound 7a, N′^2,N′^7-Bis[(1-methylpyridinium-4-yl)methylene]-1,8-naphthyridine-2,7-dicarbohydrazide iodide], for which, in experiment [1], the “result in the yeast assay” value is “positive results”.

As to `C[n+]1ccc(C=NNC(=O)c2cc(C(=O)NN=Cc3cc[n+](C)cc3)ncn2)cc1.[I-].[I-]` [Compound 4a, N′^4,N′^6-Bis[(1-methylpyridinium-4-yl)methylene]pyrimidine-4,6-dicarbohydrazide iodide], the “result in the yeast assay” value in experiment [1] is on record as “positive results”.

`C[n+]1ccc(C=NNC(=O)c2ccc3ccc4ccc(C(=O)NN=Cc5cc[n+](C)cc5)nc4c3n2)cc1.[I-].[I-]` [Compound 10a, N′^2,N′^9-Bis[(1-methylpyridinium-4-yl)methylene]-1,10-phenanthroline-2,9-dicarbohydrazide iodide]: in the experiment on quadruplex RNA F-EBNA1-T (F-EBNA1-T 0.2 μM, ligand 1.0 μM, K+10 buffer, competitor DNA ds26 3 μM (15 eq)), the “ΔTm, ligand + 3 μM ds26” value was 15.0 ± 0.6 °C. Besides, the “ΔTm, ligand + 10 μM ds26” value in the experiment with quadruplex RNA F-EBNA1-T (F-EBNA1-T 0.2 μM, ligand 1.0 μM, K+10 buffer, competitor DNA ds26 10 μM (50 eq)) was determined as 12.5 ± 1.5 °C. Further, the “ΔTm, ligand alone” value in the experiment on quadruplex RNA F-EBNA1-T (F-EBNA1-T 0.2 μM, ligand 1.0 μM, K+10 buffer, no competitor) turned out to be 15.7 ± 0.6 °C. For the same compound, the “affinity for the G-quadruplex structure of EBNA1 (in words, FRET-melting data)” value with quadruplex RNA F-EBNA1-T (conclusion from Table 2) is given as “particularly high affinity”. Besides, the DC50 on G4-RNA EBNA1 (K+-100 buffer, pH 7.3, triplicate assays) was 320 ± 20 nM. Also, the “affinity for the G-quadruplex structure of EBNA1 (in words, FID data)” value in the experiment with G4-RNA EBNA1 (conclusion from Table 1) is reported as “particularly high affinity”. Further, in experiment [1], the “result in the yeast assay” value is “positive results”.

Turning to `C[n+]1ccc(C=NNC(=O)c2cccc(C(=O)NN=Cc3cc[n+](C)cc3)n2)cc1.[I-].[I-]` [Compound 1a, N′^2,N′^6-Bis[(1-methylpyridinium-4-yl)methylene]pyridine-2,6-dicarbohydrazide iodide], the “result in the yeast assay” value in experiment [1] was “positive results”.

For the compound `C[n+]1cc(NC(=O)c2ccc3ccc4ccc(C(=O)Nc5cc6ccccc6[n+](C)c5)nc4c3n2)cc2ccccc21` [PhenDC3], in experiment [2], the “NCL-EBNA1 mRNA G-quadruplex interaction by PLA” value was “prevented”.

Regarding `C[n+]1ccc(C=NNC(=O)c2cc(C(=O)NN=Cc3cc[n+](C)c4ccccc34)ncn2)c2ccccc21.[I-].[I-]` [Compound 5a, N′^4,N′^6-Bis[(1-methylquinolinium-4-yl)methylene]pyrimidine-4,6-dicarbohydrazide iodide], the “result in the yeast assay” value in experiment [1] is on record as “positive results”.
